According to paper PMC9492542, “Brain-restricted mTOR inhibition with binary pharmacology” (Nature, 2022):
“And” between values parts separate entries of the source, which are not always exact repeats. Identical values can stand only once.

What was measured:
K562 CRISPRi cells = assay: Cell viability assay (CellTiter-Glo, 72 h) in K562 CRISPRi cells with sgRNA knockdown of FKBP12
Procedure: Knockdown cells were generated by transducing K562 CRISPRi (sgRNA^–) cells with the sgRNA expression vectors at a multiplicity of infection of less than 1 (20–40% transduction rate) with 8 μg ml^–1 polybrene.
Cells were seeded into 96-well white flat bottom plates (1,000 cells per well) (Corning) and incubated overnight. […] Cell viability was assessed using a commercial CellTiter-Glo (CTG) luminescence-based assay (Promega). In brief, the 96-well plates were equilibrated to room temperature before the addition of diluted CTG reagent (100 μl) (1:4 CTG reagent:PBS). Plates were placed on an orbital shaker for 30 min before recording luminescence using a Spark 20M (TECAN) plate reader.

MTORC1 = assay: Equilibrium constants for mTORC1 binding used in the model; conditions: read-out: Kd4 (drug binding to MTORC1 without FKBP); estimated, affinity of the TORKi portion for MTORC1
U87MG = assay: Orthotopic intracranial U87MG-luciferase glioblastoma xenograft
mTOR = target: T1, mTOR (Homo sapiens, UniProt P42345); assay: In vitro mTOR kinase inhibition assay (SelectScreen Z'-LYTE), with or without 10 µM FKBP12; assay type: biochemical; conditions: 0.00495 nM drug, +FKBP
T1 construct: We performed in vitro kinase assays with purified mTOR protein; purchased SelectScreen Services (Thermo Fisher Scientific)
T1 sequence (P42345 1360-2549 limits assumed): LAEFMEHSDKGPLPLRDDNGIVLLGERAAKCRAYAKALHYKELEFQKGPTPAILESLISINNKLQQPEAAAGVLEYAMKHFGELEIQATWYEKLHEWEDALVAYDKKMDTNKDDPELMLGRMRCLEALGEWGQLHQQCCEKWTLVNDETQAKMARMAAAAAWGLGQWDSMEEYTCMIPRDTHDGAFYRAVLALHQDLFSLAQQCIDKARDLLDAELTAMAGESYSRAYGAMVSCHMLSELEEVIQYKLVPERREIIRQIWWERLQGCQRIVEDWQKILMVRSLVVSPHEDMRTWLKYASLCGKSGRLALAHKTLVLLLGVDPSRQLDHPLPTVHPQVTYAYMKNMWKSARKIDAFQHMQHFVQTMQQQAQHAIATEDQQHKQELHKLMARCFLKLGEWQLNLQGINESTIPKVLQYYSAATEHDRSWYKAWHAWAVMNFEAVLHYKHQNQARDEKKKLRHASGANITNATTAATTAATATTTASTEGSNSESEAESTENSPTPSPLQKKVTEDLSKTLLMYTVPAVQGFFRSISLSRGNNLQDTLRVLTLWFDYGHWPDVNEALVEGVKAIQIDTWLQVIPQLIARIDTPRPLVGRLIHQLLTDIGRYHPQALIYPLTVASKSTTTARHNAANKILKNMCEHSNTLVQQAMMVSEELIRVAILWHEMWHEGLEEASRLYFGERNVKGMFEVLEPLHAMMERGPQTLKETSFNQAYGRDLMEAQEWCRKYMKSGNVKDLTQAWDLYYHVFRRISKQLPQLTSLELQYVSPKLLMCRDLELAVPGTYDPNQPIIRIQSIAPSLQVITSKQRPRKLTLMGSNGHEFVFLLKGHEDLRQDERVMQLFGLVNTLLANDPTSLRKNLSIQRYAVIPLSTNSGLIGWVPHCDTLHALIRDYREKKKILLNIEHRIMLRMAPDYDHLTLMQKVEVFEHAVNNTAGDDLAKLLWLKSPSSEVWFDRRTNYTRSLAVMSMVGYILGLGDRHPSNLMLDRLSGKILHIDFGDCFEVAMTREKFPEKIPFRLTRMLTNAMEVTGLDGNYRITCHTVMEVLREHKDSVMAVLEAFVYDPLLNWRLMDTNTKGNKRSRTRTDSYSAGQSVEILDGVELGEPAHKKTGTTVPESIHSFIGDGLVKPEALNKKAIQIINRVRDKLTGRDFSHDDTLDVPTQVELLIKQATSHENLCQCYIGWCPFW
Procedure: In vitro kinase inhibition assays were performed by SelectScreen Services (Thermo Fisher Scientific) using either Z’-LYTE (mTOR, Src, Csk, EGFR, HER2 and HGK), Adapta (LRRK2) or LanthaScreen (DDR2) assay format (standardized protocols can be accessed on the SelectScreen website: https://www.thermofisher.com/us/en/home/products-and-services/services/custom-services/screening-and-profiling-services/selectscreen-profiling-service/selectscreen-kinase-profiling-service.html. When indicated, recombinant FKBP12 protein was added to the assay mixture to a final concentration of 10 µM.

[1] = U87MG-Luc, day 0, individual mice
[2] = U87MG-Luc, day 5, individual mice
[3] = U87MG-Luc, day 10, individual mice
[4] = U87MG-Luc, day 15, individual mice
[5] = U87MG-Luc, day 20, individual mice
[6] = U87MG-Luc, day 25, individual mice

CO[C@H]1C[C@@H]2CC[C@@H](C)[C@@](O)(O2)C(=O)C(=O)N2CCCC[C@H]2C(=O)O[C@H]([C@H](C)C[C@@H]2CC[C@@H](OCCOCc3cn(CCOCCOCCOCCOCCOCCOCCOCCOCCC(=O)NCCCCn4nc(-c5ccc6oc(N)nc6c5)c5c(N)ncnc54)nn3)[C@H](OC)C2)CC(=O)[C@H](C)/C=C(\C)[C@@H](O)[C@@H](OC)C(=O)[C@H](C)C[C@H](C)/C=C/C=C/C=C/1C [RapaLink-1]
cell growth (K562-dCas9-KRAB) (K562 CRISPRi cells; FKBP12 sgRNA-1, 0.0152416 nM): 105.506 and 102.628 and 96.1562
cell growth (K562-dCas9-KRAB) (K562 CRISPRi cells; FKBP12 sgRNA-1, 0.0457247 nM): 105.668 and 102.078 and 85.8686
cell growth (K562-dCas9-KRAB) (K562 CRISPRi cells; FKBP12 sgRNA-1, 1.23457 nM): 94.9833 and 94.8438 and 86.0533
cell growth (K562-dCas9-KRAB) (K562 CRISPRi cells; FKBP12 sgRNA-1, 3.7037 nM): 89.3098 and 83.2596 and 72.1854
cell growth (K562-dCas9-KRAB) (K562 CRISPRi cells; FKBP12 sgRNA-1, 11.1111 nM): 53.7829 and 50.941 and 46.1745
cell growth (K562-dCas9-KRAB) (K562 CRISPRi cells; FKBP12 sgRNA-1, 33.3333 nM): 28.0164 and 26.1284 and 21.6828
cell growth (K562-dCas9-KRAB) (K562 CRISPRi cells; FKBP12 sgRNA-2, 0.0152416 nM): 97.2191 and 100.632 and 101.126
cell growth (K562-dCas9-KRAB) (K562 CRISPRi cells; FKBP12 sgRNA-2, 0.0457247 nM): 97.7063 and 99.4263 and 97.7491
cell growth (K562-dCas9-KRAB) (K562 CRISPRi cells; FKBP12 sgRNA-2, 0.137174 nM): 95.7095 and 97.9482 and 99.6852
cell growth (K562-dCas9-KRAB) (K562 CRISPRi cells; FKBP12 sgRNA-2, 1.23457 nM): 93.7321 and 94.186 and 93.5157
cell growth (K562-dCas9-KRAB) (K562 CRISPRi cells; FKBP12 sgRNA-2, 3.7037 nM): 38.5541 and 41.9621 and 38.7138
cell growth (K562-dCas9-KRAB) (K562 CRISPRi cells; FKBP12 sgRNA-2, 11.1111 nM): 19.9055 and 20.364 and 21.1046
cell growth (K562-dCas9-KRAB) (K562 CRISPRi cells; FKBP12 sgRNA-2, 33.3333 nM): 15.1403 and 14.2518 and 15.8
cell growth (K562-dCas9-KRAB) (K562 CRISPRi cells; GAL4-4 sgRNA, 0.0152416 nM): 101.863 and 99.8606 and 100.119
cell growth (K562-dCas9-KRAB) (K562 CRISPRi cells; GAL4-4 sgRNA, 0.0457247 nM): 103.056 and 100.129 and 98.9614
cell growth (K562-dCas9-KRAB) (K562 CRISPRi cells; GAL4-4 sgRNA, 0.137174 nM): 97.8709
cell growth (K562-dCas9-KRAB) (K562 CRISPRi cells; GAL4-4 sgRNA, 1.23457 nM): 71.632 and 70.4313 and 67.4428
cell growth (K562-dCas9-KRAB) (K562 CRISPRi cells; GAL4-4 sgRNA, 3.7037 nM): 17.746 and 15.8338 and 15.2774
cell growth (K562-dCas9-KRAB) (K562 CRISPRi cells; GAL4-4 sgRNA, 11.1111 nM): 13.9448 and 13.723 and 15.0323
cell growth (K562-dCas9-KRAB) (K562 CRISPRi cells; GAL4-4 sgRNA, 33.3333 nM): 13.6321 and 13.22 and 14.5715
cellular activity after CRISPRi knockdown of FKBP12 (K562 CRISPRi cells; K562 dCas9-KRAB, two sgRNAs): drastically impeded its cellular activity
cell growth (K562-dCas9-KRAB) (K562 CRISPRi cells; No sgRNA + 10 μM FK506, 0.0152416 nM): 90.7304 and 95.49 and 92.3837
cell growth (K562-dCas9-KRAB) (K562 CRISPRi cells; No sgRNA + 10 μM FK506, 0.0457247 nM): 91.7724 and 93.2742 and 91.026
cell growth (K562-dCas9-KRAB) (K562 CRISPRi cells; No sgRNA + 10 μM FK506, 0.137174 nM): 91.4157 and 89.1222 and 88.9009
cell growth (K562-dCas9-KRAB) (K562 CRISPRi cells; No sgRNA + 10 μM FK506, 1.23457 nM): 91.763 and 90.0617 and 88.7417
cell growth (K562-dCas9-KRAB) (K562 CRISPRi cells; No sgRNA + 10 μM FK506, 3.7037 nM): 89.7918 and 91.174 and 89.4532
cell growth (K562-dCas9-KRAB) (K562 CRISPRi cells; No sgRNA + 10 μM FK506, 11.1111 nM): 86.3008 and 85.9782 and 86.561
cell growth (K562-dCas9-KRAB) (K562 CRISPRi cells; No sgRNA + 10 μM FK506, 33.3333 nM): 70.168 and 69.6522 and 67.2473
cell growth (K562-dCas9-KRAB) (K562 CRISPRi cells; No sgRNA, 0.0152416 nM): 98.221 and 102.996 and 99.7082
cell growth (K562-dCas9-KRAB) (K562 CRISPRi cells; No sgRNA, 0.0457247 nM): 104.804 and 96.4373 and 102.095
cell growth (K562-dCas9-KRAB) (K562 CRISPRi cells; No sgRNA, 0.137174 nM): 98.0154 and 97.5628 and 102.366
cell growth (K562-dCas9-KRAB) (K562 CRISPRi cells; No sgRNA, 1.23457 nM): 69.0104 and 68.6714 and 68.1063
cell growth (K562-dCas9-KRAB) (K562 CRISPRi cells; No sgRNA, 3.7037 nM): 15.0031 and 16.0719 and 14.3485
cell growth (K562-dCas9-KRAB) (K562 CRISPRi cells; No sgRNA, 11.1111 nM): 13.4023 and 12.2624 and 12.6642
cell growth (K562-dCas9-KRAB) (K562 CRISPRi cells; No sgRNA, 33.3333 nM): 12.1483 and 12.1908 and 11.8583
Kd (MTORC1): 5 nM
tumour growth and survival (U87MG; RapaLink-1 1 mg per kg, RapaBlock 40 mg per kg, i.p. every 5 days): significantly suppressed tumour growth and improved survival
Mouse weight (U87MG; [1]): 25.3 g and 21.6 g and 19 g and 22.3 g and 21.7 g and 23.2 g
Tumor size (measured by bioluminescence) (U87MG; [1]): 4240000 and 1010000 and 1910000 and 5080000 and 3680000 and 9440000
Mouse weight (U87MG; [2]): 26.2 g and 22.3 g and 20.2 g and 23.3 g and 23.2 g (2×)
Tumor size (measured by bioluminescence) (U87MG; [2]): 1460000 and 640000 and 1800000 and 5970000 and 155000 and 7230000
Mouse weight (U87MG; [3]): 26.1 g and 22.4 g (2×) and 20.7 g and 22.7 g and 21.8 g
Tumor size (measured by bioluminescence) (U87MG; [3]): 3420000 and 1030000 and 12000000 and 3100000 and 5850000 and 4400000
Mouse weight (U87MG; [4]): 25.2 g and 22 g and 20.3 g and 23.7 g and 23.4 g and 21.9 g
Tumor size (measured by bioluminescence) (U87MG; [4]): 11100000 and 3790000 and 12200000 and 19000000 and 408000 and 7800000
Mouse weight (U87MG; [5]): 26.4 g and 22.6 g and 21.3 g and 25.8 g and 23.9 g and 23.3 g
Tumor size (measured by bioluminescence) (U87MG; [5]): 53600000 and 17300000 and 32400000 and 53200000 and 63600000 and 11500000
Mouse weight (U87MG; [6]): 22.4 g and 22.3 g and 20.3 g and 24.8 g and 21.6 g and 23.4 g
Tumor size (measured by bioluminescence) (U87MG; [6]): 605000000 and 412000000 and 640000000 and 201000000 and 1240000000 and 128000000
Tumor size (measured by bioluminescence) (U87MG; U87MG-Luc, day 30, individual mice): 1100000000 and 366000000 and 814000000 and 167000000
Mouse survival (U87MG; U87MG-Luc, individual mice, listed as RL-1): 32 days and 30 days and 41 days and 40 days
residual kinase activity (mTOR) (mTOR; listed as RL-1): 99
remaining activity at 4.95 pM (mTOR; read-out: residual kinase activity (mTOR)): 95%
